How the values were obtained:
large crabgrass = experiment: Test C pre-/postemergence herbicide test; format: in vivo, Digitaria sanguinalis; conditions: for Crabgrass, Large plant response rating: 500 g ai/ha
In short: (§1)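 Seeds were planted and sprayed preemergence with test chemicals in a non-phytotoxic solvent mixture containing surfactant; postemergence treatments went onto plants 2 to 18 cm tall (1- to 4-leaf stage). After 12 to 14 days in a greenhouse, injury was rated visually against untreated controls on a 0–100 scale.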

[1] = test system: common (oilseed) sunflower; experiment: Test C pre-/postemergence herbicide test; format: in vivo, Helianthus annuus; conditions: for Plant response rating (0 = no effect, 100 = complete control), Sunflower: 62 g ai/ha; for Plant response rating (0 = no effect, 100 = complete control), Sunflower / Plant response rating, Sunflower: preemergence; for Sunflower plant response rating: Preemergence, 500 g ai/ha, scale 0 to 100, 0 no effect, 100 complete control
In short: as §1

pigweed = experiment: Test C pre-/postemergence herbicide test; format: in vivo, Amaranthus retroflexus; conditions: for Pigweed plant response rating: 500 g ai/ha
In short: as §1

common ragweed = experiment: Test C pre-/postemergence herbicide test; format: in vivo, Ambrosia elatior; design: key to Plant response rating, Ragweed: 0 = no effect, 100 = complete control; conditions: for Ragweed plant response rating: 500 g ai/ha
In short: as §1

lambsquarters = experiment: Test C pre-/postemergence herbicide test; format: in vivo, Chenopodium album; conditions: for Lambsquarters plant response rating: 500 g ai/ha
In short: as §1

ducksalad = experiment: Test C flooded paddy test; format: in vivo, Heteranthera limosa; conditions: for Plant response rating, Ducksalad: visual rating after 12 to 14 days
[2] = 125 g ai/ha, scale 0-100, preemergence
[3] = 250 g ai/ha, scale 0 to 100 (0 no effect, 100 complete control), visual, 12 to 14 days, preemergence
[4] = Postemergence, 250 g ai/ha, scale 0 to 100, 0 no effect, 100 complete control
[5] = Preemergence, scale 0 to 100, 0 no effect, 100 complete control
[6] = postemergence, 62 g ai/ha, scale 0 to 100
[7] = 250 g ai/ha, scale 0 to 100 (0 no effect, 100 complete control), visual, 12 to 14 days
[8] = postemergence, 125 g ai/ha, scale 0 to 100
[9] = 62 g ai/ha, scale 0 to 100 (0 no effect, 100 complete control)
[10] = 125 g ai/ha, scale of 0 to 100, 0 is no effect, 100 is complete control
[11] = 500 g ai/ha, scale 0 to 100 (0 no effect, 100 complete control)
[12] = 125 g ai/ha, scale 0 (no effect) to 100 (complete control), visual, 12 to 14 days, preemergence
[13] = 125 g ai/ha, scale 0 (no effect) to 100 (complete control), visual, 12 to 14 days
[14] = 250 g ai/ha, scale of 0 to 100, 0 is no effect, 100 is complete control
[15] = 31 g ai/ha, preemergence, scale 0 to 100

Structure (SMILES) | Plant response rating (0 = no effect, 100 = complete control), Crabgrass, Large (large crabgrass; 62 g ai/ha, preemergence) | Plant response rating, Crabgrass, Large (large crabgrass; [3]) | Crabgrass, Large plant response rating (large crabgrass; [5]) | Plant response rating (0 = no effect, 100 = complete control), Sunflower [1] | Plant response rating, Sunflower [1, 7] | Sunflower plant response rating [1] | Plant response rating (0 = no effect, 100 = complete control), Pigweed (pigweed; 62 g ai/ha, preemergence) | Plant response rating, Pigweed (pigweed; [3]) | Pigweed plant response rating (pigweed; [5]) | Plant response rating (0 = no effect, 100 = complete control), Ragweed (common ragweed; 62 g ai/ha, preemergence) | Plant response rating, Ragweed (common ragweed; [3]) | Ragweed plant response rating (common ragweed; [5]) | Plant response rating (0 = no effect, 100 = complete control), Lambsquarters (lambsquarters; 62 g ai/ha, preemergence) | Plant response rating, Lambsquarters (lambsquarters; [3]) | Lambsquarters plant response rating (lambsquarters; [5]) | Ducksalad plant response rating (ducksalad; [9]) | Ducksalad plant response rating (ducksalad; [10]) | Plant response rating, Ducksalad (ducksalad; [11]) | Plant response rating, Crabgrass, Large (large crabgrass; [12]) | Plant response rating, Sunflower [1, 13] | further results
C=Cn1nc(C(C)(C)C)cc1C(=O)Nc1cccc(C(=O)N(CC)CC)c1 [Compound 34] | 80 | 100 | 100 | 0 | 0 | 0 | 100 | 100 | 100 | 0 | 0 | 40 | 90 | 100 | 100 | 15 | 25 | 75 |  |  | Plant response rating, Crabgrass, Large (large crabgrass; [2]): 100; Crabgrass, Large plant response rating (large crabgrass; Postemergence, scale 0 to 100): 60; Plant response rating, Crabgrass, Large (large crabgrass; Postemergence, 125 g ai/ha, scale 0 to 100, 0 no effect, 100 complete control): 40; Plant response rating, Crabgrass, Large (large crabgrass; [4]): 60; Plant response rating, Crabgrass, Large (large crabgrass; [6]): 20; Pigweed plant response rating (pigweed; Postemergence, scale 0 to 100): 100; Plant response rating, Pigweed (pigweed; [4]): 100; Plant response rating, Pigweed (pigweed; [8]): 100; Plant response rating, Pigweed (pigweed; [6]): 100; Ragweed plant response rating (common ragweed; Postemergence, scale 0 to 100): 40; Plant response rating, Ragweed (common ragweed; [4]): 40; Plant response rating, Ragweed (common ragweed; [8]): 30; Plant response rating, Ragweed (common ragweed; [6]): 20; Plant response rating, Lambsquarters (lambsquarters; [2]): 100; Lambsquarters plant response rating (lambsquarters; Postemergence, scale 0 to 100): 100; Plant response rating, Lambsquarters (lambsquarters; [4]): 100; Plant response rating, Lambsquarters (lambsquarters; [8]): 80; Plant response rating, Lambsquarters (lambsquarters; [6]): 40; Plant response rating, Ducksalad (ducksalad; 250 g ai/ha, scale 0 to 100 (0 no effect, 100 complete control)): 25
C=CCn1nc(C(C)(C)C)cc1C(=O)Nc1cccc(C(=O)NCC)c1 [Compound 56] | 95 | 100 | 100 | 0 | 0 | 0 | 100 | 100 | 100 | 60 | 95 | 95 | 85 | 100 | 100 | 15 | 55 | 75 | 100 | 0 | Plant response rating, Pigweed (pigweed; [12]): 100; Plant response rating, Ragweed (common ragweed; [12]): 95; Plant response rating, Lambsquarters (lambsquarters; [12]): 100; Ducksalad plant response rating (ducksalad; [14]): 70
CCn1nc(C(C)(C)C)cc1C(=O)Nc1cccc(C(=O)NCC2CC2)c1 [Compound 62] | 40 | 90 |  | 0 | 0 |  | 95 | 95 |  | 10 | 85 |  | 100 | 100 |  | 25 | 35 | 90 | 90 | 0 | Plant response rating, Crabgrass, Large (large crabgrass; [15]): 5; Plant response rating, Sunflower ([1]; 31 g ai/ha, scale 0 to 100): 0; Plant response rating, Pigweed (pigweed; [15]): 90; Plant response rating, Pigweed (pigweed; [12]): 95; Plant response rating, Ragweed (common ragweed; [15]): 0; Plant response rating, Ragweed (common ragweed; [12]): 20; Plant response rating, Lambsquarters (lambsquarters; [15]): 100; Plant response rating, Lambsquarters (lambsquarters; [12]): 100; Ducksalad plant response rating (ducksalad; [14]): 90
